# Measurements: the supplement of paper PMC10307832
# What was measured:
# Test in all cases: relative viability (nuclei count vs DMSO), 5 days (fraction); higher = more cells survive
# CAP-232 + Pemetrexed = compound: C[C@H]([C@@H](C(=O)N)NC(=O)[C@@H]1CSSC[C@@H](C(=O)N[C@H](C(=O)N[C@@H](C(=O)N[C@H](C(=O)N1)CCCCN)CC2=CNC3=CC=CC=C32)CC4=CC=C(C=C4)O)NC(=O)[C@@H](CC5=CC=CC=C5)N)O [CAP-232] + Nc1nc2[nH]cc(CCc3ccc(C(=O)N[C@@H](CCC(=O)O)C(=O)O)cc3)c2c(=O)[nH]1 [Pemetrexed] (partner 0.2 µM)
# Outline: (§1)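 Nuclei were stained with Hoechst during a one-step fixation (final 0.05% Triton X-100, 1% formaldehyde, 1 ug/ml Hoechst) carried out 5 days after dosing, then counted on 4× images. The cells, lung cancer lines in 1536-well plates, had been dosed by pin tool the day after seeding with one drug alone or a fixed anchor-drug dose plus five library-drug doses (not always all listed) in √10 steps. Relative viability is the nuclei count in treated wells divided by that in vehicle wells, and each value is the median of duplicate plates.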
# CAP-232 + Linsitinib = compound: C[C@H]([C@@H](C(=O)N)NC(=O)[C@@H]1CSSC[C@@H](C(=O)N[C@H](C(=O)N[C@@H](C(=O)N[C@H](C(=O)N1)CCCCN)CC2=CNC3=CC=CC=C32)CC4=CC=C(C=C4)O)NC(=O)[C@@H](CC5=CC=CC=C5)N)O [CAP-232] + C[C@]1(O)C[C@@H](c2nc(-c3ccc4ccc(-c5ccccc5)nc4c3)c3c(N)nccn32)C1 [Linsitinib] (partner 1 µM)
# Outline: as §1
# CAP-232 + Tozasertib = compound: C[C@H]([C@@H](C(=O)N)NC(=O)[C@@H]1CSSC[C@@H](C(=O)N[C@H](C(=O)N[C@@H](C(=O)N[C@H](C(=O)N1)CCCCN)CC2=CNC3=CC=CC=C32)CC4=CC=C(C=C4)O)NC(=O)[C@@H](CC5=CC=CC=C5)N)O [CAP-232] + Cc1cc(Nc2cc(N3CCN(C)CC3)nc(Sc3ccc(NC(=O)C4CC4)cc3)n2)n[nH]1 [Tozasertib] (partner 0.1 µM)
# Outline: as §1
# CAP-232 + Bortezomib = compound: C[C@H]([C@@H](C(=O)N)NC(=O)[C@@H]1CSSC[C@@H](C(=O)N[C@H](C(=O)N[C@@H](C(=O)N[C@H](C(=O)N1)CCCCN)CC2=CNC3=CC=CC=C32)CC4=CC=C(C=C4)O)NC(=O)[C@@H](CC5=CC=CC=C5)N)O [CAP-232] + CC(C)C[C@H](NC(=O)[C@H](Cc1ccccc1)NC(=O)c1cnccn1)B(O)O [Bortezomib] (partner 0.002 µM)
# Outline: as §1
# CAP-232 + Phenformin = compound: C[C@H]([C@@H](C(=O)N)NC(=O)[C@@H]1CSSC[C@@H](C(=O)N[C@H](C(=O)N[C@@H](C(=O)N[C@H](C(=O)N1)CCCCN)CC2=CNC3=CC=CC=C32)CC4=CC=C(C=C4)O)NC(=O)[C@@H](CC5=CC=CC=C5)N)O [CAP-232] + N=C(N)NC(=N)NCCc1ccccc1 [Phenformin] (partner 250 µM)
# Outline: as §1
Cell Line,relative viability (CAP-232 + Pemetrexed; first compound 0.4 µM),relative viability (CAP-232 + Pemetrexed; first compound 1.265 µM),relative viability (CAP-232 + Pemetrexed; first compound 4 µM),relative viability (CAP-232 + Pemetrexed; first compound 12.65 µM),relative viability (CAP-232 + Linsitinib; first compound 0.4 µM),relative viability (CAP-232 + Linsitinib; first compound 1.265 µM),relative viability (CAP-232 + Linsitinib; first compound 4 µM),relative viability (CAP-232 + Linsitinib; first compound 12.65 µM),relative viability (CAP-232 + Tozasertib; first compound 0.4 µM),relative viability (CAP-232 + Tozasertib; first compound 1.265 µM),relative viability (CAP-232 + Tozasertib; first compound 4 µM),relative viability (CAP-232 + Tozasertib; first compound 12.65 µM),relative viability (CAP-232 + Bortezomib; first compound 0.4 µM),relative viability (CAP-232 + Bortezomib; first compound 1.265 µM),relative viability (CAP-232 + Bortezomib; first compound 4 µM),relative viability (CAP-232 + Bortezomib; first compound 12.65 µM),relative viability (CAP-232 + Phenformin; first compound 0.4 µM),relative viability (CAP-232 + Phenformin; first compound 1.265 µM),relative viability (CAP-232 + Phenformin; first compound 4 µM),relative viability (CAP-232 + Phenformin; first compound 12.65 µM)
NCI-H460,0.0632,0.0566,0.0556,0.0558,0.89,0.865,0.986,0.44,0.487,0.463,0.634,0.396,1.49,1.17,1.22,0.812,0.634,0.529,0.567,0.307
NCI-H1975,0.32,0.289,0.307,0.197,1.03,1.02,1.07,0.65,0.968,0.75,0.94,0.482,0.336,0.351,0.416,0.255,0.449,0.413,0.437,0.332
SK-LU-1,0.916,0.996,1.03,0.658,1.06,1.2,1.15,1.06,0.309,0.314,0.289,0.203,1.53,1.04,1.2,1.3,0.503,0.553,0.67,0.482
NCI-H322M,0.621,0.645,0.599,0.788,1.14,0.916,0.941,0.959,0.448,0.5,0.515,0.498,1.53,1.2,1.14,1.28,0.873,0.709,0.759,0.862
NCI-H1651,0.686,0.514,0.676,0.709,1.02,0.937,1.01,0.655,0.665,0.681,0.732,0.625,1.01,0.939,1.02,0.953,0.407,0.32,0.352,0.25
HARA,0.281,0.243,0.268,0.215,0.907,0.989,1.14,0.836,0.0986,0.0955,0.144,0.0866,1.2,1.2,1.13,1.17,0.538,0.5,0.463,0.515
H3255,0.605,0.549,0.559,0.543,0.922,0.924,1.16,0.916,0.612,0.733,0.791,0.893,0.934,0.816,0.829,0.688,0.746,0.309,0.341,0.504
NCI-H441,0.25,0.234,0.281,0.262,0.439,0.64,0.699,0.5,0.628,0.58,0.571,0.653,0.429,0.357,0.392,0.436,0.82,0.897,0.982,0.864
CAL-12T,0.929,1.26,1.16,1.1,0.812,0.784,0.892,0.966,0.434,0.264,0.262,0.358,1.21,0.939,0.91,0.477,0.491,0.506,0.593,0.355
NCI-H1437,0.299,0.288,0.33,0.321,1.04,1.03,1.17,0.664,0.412,0.403,0.461,0.466,0.604,0.584,0.598,0.521,0.297,0.307,0.327,0.254
HOP-62,0.331,0.322,0.341,0.295,0.776,,0.954,0.946,0.347,0.388,0.387,0.406,0.924,,1.11,0.699,0.71,0.675,0.72,0.55
EPLC-272H,,0.411,0.316,0.178,1.33,1.02,1.3,1.09,0.25,0.182,0.288,0.389,0.992,0.878,0.892,0.87,0.276,0.285,0.319,0.322
COR-L 105,1.44,0.964,1.18,0.783,0.963,0.816,1.08,0.61,0.346,0.387,0.379,0.323,0.913,0.742,0.657,0.567,0.423,0.429,0.501,0.287
HCC-366,0.201,0.175,0.202,0.17,0.745,0.628,0.824,0.537,0.132,0.106,0.108,0.078,1.22,0.942,1.15,1,0.6,0.588,0.66,0.631
